Legend:
Type in all cases: cell-based
[1] = tested on: A2780Cis (cisplatin-resistant human ovarian cancer); experiment: In vitro cytotoxicity, SRB assay, A2780Cis; conditions: for IC50: Homo sapiens, A2780cis, read-out: IC50 (nM) A2780Cis
[2] = tested on: BALB/3T3 (normal mouse fibroblasts); experiment: In vitro cytotoxicity, SRB assay, normal BALB/3T3 fibroblasts; conditions: Table 5; BALB/3T3 normal mouse fibroblasts; read-out: IC50 (nM) BALB3T3 normal cells
[3] = tested on: MV-4-11 (human biphenotypic leukaemia); experiment: In vitro cytotoxicity, MTT assay, MV-4-11; conditions: for IC50: Homo sapiens, MV4-11, read-out: IC50 (nM) MV4-11

Row | Structure (SMILES) | SI A2780Cis [1] | IC50 [1] [nM] | IC50 [2] [nM] | SI MV4-11 [3] | IC50 [3] [nM]
1 | CC[C@@H](C(=O)[C@@H](C)[C@@H](O)[C@H](C)[C@@H]1O[C@@H]([C@@H](CC)C(=O)O)CC[C@@H]1C)[C@H]1O[C@]2(C=C[C@@H](NC(=O)N3CCN(C)CC3)[C@]3(CC[C@@](C)([C@H]4CC[C@](O)(CC)[C@H](C)O4)O3)O2)[C@H](C)C[C@@H]1C [FLC-00515-1•Na] | 10.6 | 357 | 3790 | 9.5 | 400
2 | CC[C@@H](C(=O)[C@@H](C)[C@@H](O)[C@H](C)[C@@H]1O[C@@H]([C@@H](CC)C(=O)O)CC[C@@H]1C)[C@H]1O[C@]2(C=C[C@@H](NC(=O)OC3CCN(C)CC3)[C@]3(CC[C@@](C)([C@H]4CC[C@](O)(CC)[C@H](C)O4)O3)O2)[C@H](C)C[C@@H]1C [FLC-00559-1•Na] | 16.2 | 330 | 5340 | 17.8 | 300
3 | CC[C@@H](C(=O)[C@@H](C)[C@@H](O)[C@H](C)[C@@H]1O[C@@H]([C@@H](CC)C(=O)O)CC[C@@H]1C)[C@H]1O[C@]2(C=C[C@@H](NC(=O)c3ccncc3)[C@]3(CC[C@@](C)([C@H]4CC[C@](O)(CC)[C@H](C)O4)O3)O2)[C@H](C)C[C@@H]1C [FLC-00487-1•Na] | 79.6 | 45.9 | 3650 | 27.5 | 133
4 | CC[C@@H](C(=O)[C@@H](C)[C@@H](O)[C@H](C)[C@@H]1O[C@@H]([C@@H](CC)C(=O)O)CC[C@@H]1C)[C@H]1O[C@]2(C=C[C@@H](NC(=O)NCCc3cccnc3)[C@]3(CC[C@@](C)([C@H]4CC[C@](O)(CC)[C@H](C)O4)O3)O2)[C@H](C)C[C@@H]1C [FLC-00567-1•Na] | 54.2 | 15.7 | 848 | 25.0 | 34
5 | CC[C@@H](C(=O)[C@@H](C)[C@@H](O)[C@H](C)[C@@H]1O[C@@H]([C@@H](CC)C(=O)O)CC[C@@H]1C)[C@H]1O[C@]2(C=C[C@@H](NC(=O)OCCN3CCOCC3)[C@]3(CC[C@@](C)([C@H]4CC[C@](O)(CC)[C@H](C)O4)O3)O2)[C@H](C)C[C@@H]1C [FLC-00570-1•Na] | 21.2 | 30 | 636 | 14.6 | 43.7
6 | CC[C@@H](C(=O)[C@@H](C)[C@@H](O)[C@H](C)[C@@H]1O[C@@H]([C@@H](CC)C(=O)O)CC[C@@H]1C)[C@H]1O[C@]2(C=C[C@@H](NC(=O)C(=O)NCc3ccccn3)[C@]3(CC[C@@](C)([C@H]4CC[C@](O)(CC)[C@H](C)O4)O3)O2)[C@H](C)C[C@@H]1C [FLC-00478-1•Na] | 25.9 | 63.6 | 1650 | 9.2 | 180
7 | CC[C@@H](C(=O)[C@@H](C)[C@@H](O)[C@H](C)[C@@H]1O[C@@H]([C@@H](CC)C(=O)O)CC[C@@H]1C)[C@H]1O[C@]2(C=C[C@@H](NC(=O)N3CCC3)[C@]3(CC[C@@](C)([C@H]4CC[C@](O)(CC)[C@H](C)O4)O3)O2)[C@H](C)C[C@@H]1C [FLC-00543-1•Na] | 15.2 | 67 | 1020 | 5.9 | 174
8 | CC[C@@H](C(=O)[C@@H](C)[C@@H](O)[C@H](C)[C@@H]1O[C@@H]([C@@H](CC)C(=O)O)CC[C@@H]1C)[C@H]1O[C@]2(C=C[C@@H](NC(=O)C(=O)NCc3cccnc3)[C@]3(CC[C@@](C)([C@H]4CC[C@](O)(CC)[C@H](C)O4)O3)O2)[C@H](C)C[C@@H]1C [FLC-00479-1•Na] | 15.8 | 272 | 4300 | 12.6 | 343
9 | CC[C@@H](C(=O)[C@@H](C)[C@@H](O)[C@H](C)[C@@H]1O[C@@H]([C@@H](CC)C(=O)O)CC[C@@H]1C)[C@H]1O[C@]2(C=C[C@@H](NC(=O)C(Cl)Cl)[C@]3(CC[C@@](C)([C@H]4CC[C@](O)(CC)[C@H](C)O4)O3)O2)[C@H](C)C[C@@H]1C [FLC-00493-1•Na] | 26.9 | 2.14 | 57.7 | 10.6 | 5.43
10 | CC[C@@H](C(=O)[C@@H](C)[C@@H](O)[C@H](C)[C@@H]1O[C@@H]([C@@H](CC)C(=O)O)CC[C@@H]1C)[C@H]1O[C@]2(C=C[C@@H](NC(=O)OCCc3scnc3C)[C@]3(CC[C@@](C)([C@H]4CC[C@](O)(CC)[C@H](C)O4)O3)O2)[C@H](C)C[C@@H]1C [FLC-00547-1•Na] | ≈56.2 | < 1.38 | 77.6 | 35.2 | 2.21
11 | CC[C@@H](C(=O)[C@@H](C)[C@@H](O)[C@H](C)[C@@H]1O[C@@H]([C@@H](CC)C(=O)O)CC[C@@H]1C)[C@H]1O[C@]2(C=C[C@@H](NC(=O)CC(C)(C)C)[C@]3(CC[C@@](C)([C@H]4CC[C@](O)(CC)[C@H](C)O4)O3)O2)[C@H](C)C[C@@H]1C [FLC-00534-1•Na] | 50.7 | 1.28 | 64.9 | 42.4 | 1.53
12 | CC[C@@H](C(=O)[C@@H](C)[C@@H](O)[C@H](C)[C@@H]1O[C@@H]([C@@H](CC)C(=O)O)CC[C@@H]1C)[C@H]1O[C@]2(C=C[C@@H](NC(=O)OCCN(C)C)[C@]3(CC[C@@](C)([C@H]4CC[C@](O)(CC)[C@H](C)O4)O3)O2)[C@H](C)C[C@@H]1C [FLC-00497-1•Na] | 8.2 | 278 | 2280 | 8.2 | 278
13 | CC[C@@H](C(=O)[C@@H](C)[C@@H](O)[C@H](C)[C@@H]1O[C@@H]([C@@H](CC)C(=O)O)CC[C@@H]1C)[C@H]1O[C@]2(C=C[C@@H](NC(=O)C(=O)NCc3ccccc3Cl)[C@]3(CC[C@@](C)([C@H]4CC[C@](O)(CC)[C@H](C)O4)O3)O2)[C@H](C)C[C@@H]1C [FLC-00477-1•Na] | 40.4 | 3.54 | 143 | 46.1 | 3.11
14 | CC[C@@H](C(=O)[C@@H](C)[C@@H](O)[C@H](C)[C@@H]1O[C@@H]([C@@H](CC)C(=O)O)CC[C@@H]1C)[C@H]1O[C@]2(C=C[C@@H](NC(=O)c3ccccc3C(F)(F)F)[C@]3(CC[C@@](C)([C@H]4CC[C@](O)(CC)[C@H](C)O4)O3)O2)[C@H](C)C[C@@H]1C [FLC-00578-1•Na] | 184.9 | 1.94 | 358 | 59.8 | 5.99
15 | CC[C@@H](C(=O)[C@@H](C)[C@@H](O)[C@H](C)[C@@H]1O[C@@H]([C@@H](CC)C(=O)O)CC[C@@H]1C)[C@H]1O[C@]2(C=C[C@@H](NC(=O)N3CCN(S(C)(=O)=O)C3=O)[C@]3(CC[C@@](C)([C@H]4CC[C@](O)(CC)[C@H](C)O4)O3)O2)[C@H](C)C[C@@H]1C [FLC-00519-1•Na] | 5.3 | 1190 | 6370 | 4.0 | 1590
16 | CC[C@@H](C(=O)[C@@H](C)[C@@H](O)[C@H](C)[C@@H]1O[C@@H]([C@@H](CC)C(=O)O)CC[C@@H]1C)[C@H]1O[C@]2(C=C[C@@H](NC(=O)OCCC(C)(C)O)[C@]3(CC[C@@](C)([C@H]4CC[C@](O)(CC)[C@H](C)O4)O3)O2)[C@H](C)C[C@@H]1C [FLC-00577-1•Na] | 30.0 | 29.1 | 874 | 20.4 | 42.8
17 | CC[C@@H](C(=O)[C@@H](C)[C@@H](O)[C@H](C)[C@@H]1O[C@@H]([C@@H](CC)C(=O)O)CC[C@@H]1C)[C@H]1O[C@]2(C=C[C@@H](NC(=O)OCc3cc(Cl)cc(Cl)c3)[C@]3(CC[C@@](C)([C@H]4CC[C@](O)(CC)[C@H](C)O4)O3)O2)[C@H](C)C[C@@H]1C [FLC-00485-1•Na] | 23.0 | 4.62 | 106 | 5.3 | 20
18 | C#CC(C)(C)OC(=O)N[C@@H]1C=C[C@]2(O[C@H]([C@@H](CC)C(=O)[C@@H](C)[C@@H](O)[C@H](C)[C@@H]3O[C@@H]([C@@H](CC)C(=O)O)CC[C@@H]3C)[C@@H](C)C[C@H]2C)O[C@@]12CC[C@@](C)([C@H]1CC[C@](O)(CC)[C@H](C)O1)O2 [FLC-00552-1•Na] | 46.7 | 4.02 | 187 | 32.1 | 5.84
19 | CC[C@@H](C(=O)[C@@H](C)[C@@H](O)[C@H](C)[C@@H]1O[C@@H]([C@@H](CC)C(=O)O)CC[C@@H]1C)[C@H]1O[C@]2(C=C[C@@H](NS(=O)(=O)c3ccc(Br)cc3)[C@]3(CC[C@@](C)([C@H]4CC[C@](O)(CC)[C@H](C)O4)O3)O2)[C@H](C)C[C@@H]1C [FLC-00504-1•Na] | 30.5 | 2.99 | 91.3 | 20.7 | 4.4
20 | CC[C@@H](C(=O)[C@@H](C)[C@@H](O)[C@H](C)[C@@H]1O[C@@H]([C@@H](CC)C(=O)O)CC[C@@H]1C)[C@H]1O[C@]2(C=C[C@@H](NC(=O)N3CCOCC3)[C@]3(CC[C@@](C)([C@H]4CC[C@](O)(CC)[C@H](C)O4)O3)O2)[C@H](C)C[C@@H]1C [FLC-00540-1•Na] | 24.1 | 37 | 891 | 16.5 | 53.9
21 | CC[C@@H](C(=O)[C@@H](C)[C@@H](O)[C@H](C)[C@@H]1O[C@@H]([C@@H](CC)C(=O)O)CC[C@@H]1C)[C@H]1O[C@]2(C=C[C@@H](NC(=O)OCCOCCOCCOCCOC)[C@]3(CC[C@@](C)([C@H]4CC[C@](O)(CC)[C@H](C)O4)O3)O2)[C@H](C)C[C@@H]1C [FLC-00481-1•Na] | 17.4 | 220 | 3830 | 12.0 | 320
